# Measured values as given in US20040039053A1, “Use of(-) (3-halomethylphenoxy) (4-halophenyl) acetic acid derivatives for treatment of insulin resistance, type 2 diabetes, hyperlipidemia and hyperuricemia” (priority 2000, published 2004).
# Where “and” joins values, the source holds several entries; their conditions need not be identical. Identical values can stand only once. Entries after “also recorded” stand apart in the source; their conditions may differ.
# Tests used:
# [1] = molecular target: T1, cytochrome P450 2C9 (CYP2C9) (Homo sapiens, UniProt P11712); experiment: biochemical
# Procedure: (§2) Tolbutamide hydroxylation activity (100 μM C-tolbutamide; 1 mM NADPH) was assayed in pooled human liver microsomes (0.6 mg protein/ml)) for 60 minutes at 37° C. both with and without test compounds.
# [2] = molecular target: T1, cytochrome P450 2C9 (CYP2C9); experiment: Inhibition of CYP2C9 tolbutamide hydroxylation activity in pooled human liver microsomes (Example 7)
# Procedure: as §2
# [3] = Pharmacokinetic study in SD rats, chiral HPLC of plasma halofenic acids (Example 14); format: in vivo; conditions: single oral dose of (−) halofenate 50 mg/kg
# Procedure: Male 225-250 g SD rats were purchased from Charles River. […] A catheter was placed in the left carotid artery under sodium pentobarbital (50 mg/kg i.p.) and animals were allowed to recover for 2 days before treatment. […] The gavage volume was 5 ml/kg. Blood samples were collected at 1, 2, 4, 6, 8, 12, 24, 48, 72, 96 and 120 hours post dose. The plasma samples were analyzed for each enantiomeric acid ((−) halofenic acid and (+) halofenic acid) by a chiral specific HPLC assay, since the esters are prodrugs, which are designed to convert to their respective enantiomeric acids in vivo.
# CYP2A6 = molecular target: T2, CYP2A6 (Homo sapiens, UniProt P11509); experiment: Cytochrome P450 isoform inhibition in human hepatic microsomes, coumarin (Example 18); conditions: positive control 250 μM; VC 32.0 ± 1.4
# T2 sequence (P11509 1-494): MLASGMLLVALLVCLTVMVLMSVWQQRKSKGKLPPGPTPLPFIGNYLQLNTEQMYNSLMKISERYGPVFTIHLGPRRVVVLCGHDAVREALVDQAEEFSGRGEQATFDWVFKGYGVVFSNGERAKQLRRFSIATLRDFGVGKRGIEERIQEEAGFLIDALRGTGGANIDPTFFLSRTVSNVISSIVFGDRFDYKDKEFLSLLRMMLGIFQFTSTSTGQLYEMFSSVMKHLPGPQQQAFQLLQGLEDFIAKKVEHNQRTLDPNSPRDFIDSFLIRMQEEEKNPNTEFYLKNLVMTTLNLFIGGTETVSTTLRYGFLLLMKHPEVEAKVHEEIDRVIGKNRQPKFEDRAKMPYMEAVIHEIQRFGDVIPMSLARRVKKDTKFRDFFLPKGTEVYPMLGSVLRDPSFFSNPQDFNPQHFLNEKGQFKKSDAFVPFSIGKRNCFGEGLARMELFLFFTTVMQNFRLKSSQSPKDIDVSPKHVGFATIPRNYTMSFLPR
# Zucker fatty rats [4] = experiment: Short insulin tolerance test in Zucker fatty rats (Example 10); format: in vivo; conditions: 50 mg/kg/day for 5 days
# Procedure: (§1) Prior to treatment, rats were assigned to 6 groups based on body weight. Each treatment group consisted of 8 rats. […] The gavage volume was 10 ml/kg. All rats received an oral glucose challenge (1.9 g/kg) 5.5 hours after the treatment and 4 hours after withdrawal of the food. Blood samples were taken at 0, 15, 30, 60, 90, 120, and 180 minutes following the glucose challenge for plasma glucose measurement. […] On day 5, rats received the intravenous insulin (0.75 U/kg) 5.5 hours after the last dose and 4 hours after withdrawal of the food. Blood samples were taken at 3, 6, 9, 12, 15 and 18 minutes following the insulin injection for plasma glucose measurement.
# [5] = tested on: Zucker Diabetic Fatty rats; experiment: Lipid lowering activity in Zucker Diabetic Fatty rats (Example 11); format: in vivo; conditions: ZDF rats; for plasma cholesterol course during treatment, in words: 13 days, racemate 50 mg/kg/day; for plasma cholesterol course during treatment, in words / difference in plasma cholesterol between control and treated groups, in words: enantiomers 25 mg/kg/day; for difference in plasma cholesterol between control and treated groups, in words: experiment I, 7 and 13 days
# Procedure: Male Zucker diabetic fatty (ZDF) rats were obtained from GMI Laboratories (Indianapolis, Ind.) at 9 weeks of age. Vehicle or enantiomers of halofenate administered by oral gavage on a daily basis starting at 74 days of age. Initial blood samples were obtained for analysis one day before treatment and at the indicated times in the treatment protocol. Blood was analyzed for plasma triglyceride and cholesterol by standard techniques.
# Zucker fatty rats [6] = experiment: Oral glucose challenge in Zucker fatty rats (Example 10); format: in vivo; conditions: racemate 100 mg/kg, enantiomers 50 and 100 mg/kg; for incremental glucose area under the curve (AUC) vs control, in words: single oral dose
# Procedure: as §1
# diabetic ob/ob mice [7] = experiment: Glucose and insulin lowering on daily oral administration for 5 days in ob/ob mice (Example 9)
# Procedure: Animals were housed (4-5 mice/cage) under standard laboratory conditions at 22° C. and 50% relative humidity, and were maintained on a diet of Purina rodent chow and water ad libitum. Prior to treatment, blood was collected from the tail vein of each animal. Mice that had non-fasting plasma glucose levels between 300 and 520 mg/dL were used. Each treatment group consisted of 10 mice that were distributed so that the mean glucose levels were equivalent in each group as the start of the study. […] The gavage volume was 10 ml/kg. Blood samples were taken at 3, 6, 27, 30 and 120 hour after the first dose and analyzed for plasma glucose and insulin. The animals were fasted overnight (14 hours) before the 120 hours sampling. Plasma glucose concentrations were determined calorimetrically using glucose oxidase method (Sigma Chemical Co, St. Louis, Mo., USA). Plasma insulin concentrations were determined by using the Rat Insulin RIA Kit from Linco Research Inc. (St. Charles, Mo., USA). Significance difference between groups (comparing drug-treated to vehicle-treated) was evaluated using Student unpaired t-test.
# ZDF rats = experiment: Plasma glucose in ZDF rats, (−) versus (+) halofenate (Example 13); format: in vivo; conditions: 50 mg/kg oral once a day for 3 days
# Procedure: Male 8-9 week old ZDF rats were purchased from Genetic Models, Inc. (Indianapolis, Ind.). […] Rats that had 4-hour fasting plasma glucose levels between 200 and 500 mg/dL were used. […] The gavage volume was 5 ml/kg. Blood samples were taken at 5 hours post dose on day 2 and 3.
# [8] = tested on: oxonic acid induced hyperuricemic rats; experiment: Plasma uric acid in oxonic acid induced hyperuricemic rats (Example 17); format: in vivo; conditions: oxonic acid hyperuricemic SD rats, oral 50 mg/kg for 3 days, 100 mg/kg on day 4, 6 hours post gavage
# From the text: Male SD rats, weight 275-300 g were purchased from Charles River. […] To establish a hyperuricemic state, animals were put on a diet containing 2.5% (w/w) of oxonic acid (Sigma Chemical Co, St. Louis, Mo., USA) throughout the experiment. Oxonic acid elevates plasma uric acid by inhibiting uricase. Rats were screened for plasma uric acid levels 3 days after they were placed on the diet, and those that had extreme plasma uric acid levels were excluded. Rats were assigned to one of three groups and the mean uric acid levels were equivalent in each group. […] Oxonic acid was delivered in a liquid formulation containing 0.9% (w/v) methylcellulose. The gavage and injection volumes were 5 ml/kg. Blood samples were taken at 6 hours post oral gavage on day 4. Plasma uric acid levels were determined colorimetrically using the Infinity Uric Acid Reagent (Sigma Chemical Co, St. Louis, Mo., USA).
# C57BL/6J db/db mice = experiment: Prevention of diabetes and alleviation of hypertriglyceridemia in db/db mice (Example 15); format: in vivo; conditions: 150 mg/kg/day in chow, 9 weeks; for plasma triglyceride levels with age, in words: 150 mg/kg/day
# Procedure: Blood samples were taken at 8-10 AM once a week for 9 weeks under non-fasting condition. Food intake and body weight were measured every 1-3 days. Plasma glucose and triglyceride concentrations were determined calorimetrically using kits from Sigma Chemical Co (No. 315 and No. 339, St. Louis, Mo., USA). Plasma insulin levels were measured using RIA assay kit purchased from Linco Research (St. Charles, Mo.).
# diabetic ob/ob mice [9] = experiment: Time course of glucose-lowering after a single oral dose in ob/ob mice (Example 8); format: in vivo; conditions: single oral dose 250 mg/kg; for onset and duration of glucose-lowering action, in words: 250 mg/kg
# [10] = 250 mg/kg/day oral, listed as (+) enantiomer, 250 mg/kg/day
# [11] = 250 mg/kg/day oral, listed as (−) enantiomer, 250 mg/kg/day
# T1 sequence (P11712 whole entry): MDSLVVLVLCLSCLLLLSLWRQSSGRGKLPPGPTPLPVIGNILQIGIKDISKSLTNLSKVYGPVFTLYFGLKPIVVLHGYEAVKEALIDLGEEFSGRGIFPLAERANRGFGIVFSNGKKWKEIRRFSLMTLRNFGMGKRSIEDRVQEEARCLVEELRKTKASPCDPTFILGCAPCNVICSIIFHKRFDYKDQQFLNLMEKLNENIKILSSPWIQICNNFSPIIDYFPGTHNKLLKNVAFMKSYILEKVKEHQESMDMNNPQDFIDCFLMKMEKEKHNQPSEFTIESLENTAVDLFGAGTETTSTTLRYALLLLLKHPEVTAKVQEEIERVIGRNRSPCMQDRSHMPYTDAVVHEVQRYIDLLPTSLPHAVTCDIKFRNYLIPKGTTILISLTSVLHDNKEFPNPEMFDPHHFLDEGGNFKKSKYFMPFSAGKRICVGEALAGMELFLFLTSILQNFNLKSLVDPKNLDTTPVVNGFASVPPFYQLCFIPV
structure (smiles),measurement,setting,value
"O=C(O)C(Oc1cccc(C(F)(F)F)c1)c1ccc(Cl)cc1 (single isomer, unassigned; (+)) [(+) halofenic acid, (+) 4-chlorophenyl-(3-trifluoromethylphenoxy)-acetic acid, reference compound]",IC50,[1],220 nM
same,"inhibition of cytochrome P450 2C9, in words",[2],quite potent
same,plasma concentration at 0 hour,"[3]; individual rats 8, 9, 11",BQL (BQL = Below Quantifiable Limit < 1.00 μg/mL)
same,plasma concentration at 1 hour,"[3]; individual rats 8, 9, 11",1.12 μg/mL and BQL (BQL = Below Quantifiable Limit < 1.00 μg/mL) (2×)
same,plasma concentration at 2 hours,"[3]; individual rats 8, 9, 11",1.27 μg/mL and BQL (BQL = Below Quantifiable Limit < 1.00 μg/mL) and 1.09 μg/mL
same,plasma concentration at 4 hours,"[3]; individual rats 8, 9, 11",1.67 μg/mL and BQL (BQL = Below Quantifiable Limit < 1.00 μg/mL) and 1.95 μg/mL
same,plasma concentration at 6 hours,"[3]; individual rats 8, 9, 11",2.96 μg/mL and BQL (BQL = Below Quantifiable Limit < 1.00 μg/mL) and 1.73 μg/mL
same,plasma concentration at 8 hours,"[3]; individual rats 8, 9, 11",2.58 μg/mL and BQL (BQL = Below Quantifiable Limit < 1.00 μg/mL) and 2.06 μg/mL
same,plasma concentration at 12 hours,"[3]; individual rats 8, 9, 11",2850 ng/mL and 2230 ng/mL and 2080 ng/mL
same,plasma concentration at 24 hours,"[3]; individual rats 8, 9, 11",2220 ng/mL and 1290 ng/mL and 1860 ng/mL
same,plasma concentration at 48 hours,"[3]; individual rats 8, 9, 11",1640 ng/mL and 1030 ng/mL and 1140 ng/mL
same,plasma concentration at 72 hours,"[3]; individual rats 8, 9, 11",1.25 μg/mL and BQL (BQL = Below Quantifiable Limit < 1.00 μg/mL) (2×)
same,plasma concentration at 96 hours,"[3]; individual rats 8, 11",BQL (BQL = Below Quantifiable Limit < 1.00 μg/mL)
same,plasma concentration at 120 hours,[3]; rat 8,BQL (BQL = Below Quantifiable Limit < 1.00 μg/mL)
"N[C@@H]1C[C@H]1c1ccccc1 (racemic) [TRAN, tranylcypromine]",Coumarin 7-HC Production,CYP2A6,0.00 ± 0.00 pmol/mg protein/min
"CC(=O)NCCOC(=O)C(Oc1cccc(C(F)(F)F)c1)c1ccc(Cl)cc1 (single isomer, unassigned; (+)) [(+) halofenate, (+) 2-Acetamidoethyl 4-Chlorophenyl-(3-trifluoromethylphenoxy)-acetate, reference compound]","insulin sensitivity (slope of decline in glucose after i.v. insulin), in words",Zucker fatty rats [4],small effect on insulin sensitivity that was not significantly different from the vehicle-treated control
same,"lowering of plasma triglyceride vs control at 7 days, in words",[5]; 37.5 mg/kg/day (High dose),significant lowering of plasma triglyceride
same,days of treatment with significant plasma cholesterol decrease vs control,"[5]; 37.5 mg/kg/day (High dose), 37.5 mg/kg/day",after 7 days but not after 14 days
same,"plasma cholesterol course during treatment, in words",[5],remained relatively constant
same,"incremental glucose area under the curve (AUC) vs control, in words",Zucker fatty rats [6],not statistically significant
same,"overnight fasting plasma insulin after 5 days, in words","diabetic ob/ob mice [7]; 125 mg/kg/day oral, listed as (+) enantiomer, 125 mg/kg/day",did not lower plasma insulin
same,"overnight fasting plasma insulin after 5 days, in words",diabetic ob/ob mice [7]; [10],decrease in plasma insulin
same,time points with reduced plasma insulin vs control,diabetic ob/ob mice [7]; [10],greatest extent of reduced plasma insulin was noted at 27 and 30 hours
same,"plasma glucose compared to vehicle-treated animals, in words",ZDF rats,failed to reduce plasma glucose concentrations
same,"plasma uric acid levels vs vehicle, in words",[8],"lowered plasma uric acid levels, but it was not statistically significant"
"CC(=O)NCCOC(=O)C(Oc1cccc(C(F)(F)F)c1)c1ccc(Cl)cc1 (single isomer, unassigned; (-)) [(−) halofenate, (−) 2-acetamidoethyl 4-chlorophenyl-(3-trifluoromethylphenoxy)-acetate]","insulin sensitivity (slope of decline in glucose after i.v. insulin), in words",Zucker fatty rats [4],improved significantly; also recorded: significantly more insulin sensitive
same,days of treatment with significant plasma cholesterol decrease vs control,[5]; 12.5 mg/kg/day (Low dose),7 days
same,"plasma triglyceride levels, in words",[5]; 37.5 mg/kg/day (High dose),lowest triglyceride levels of all the treatment groups
same,"lowering of plasma triglyceride vs control at 7 days, in words","[5]; 37.5 mg/kg/day (High dose), listed as (−) enantiomer of halofenate, 37.5 mg/kg/day",greater magnitude
same,"lowering of plasma triglyceride vs control at 7 days, in words","[5]; 37.5 mg/kg/day (High dose), listed as (−) enantiomer, 37.5 mg/kg/day",significant lowering of plasma triglyceride
same,"plasma cholesterol course during treatment, in words",[5],plasma cholesterol declined with treatment
same,"extent of plasma cholesterol lowering, in words","[5]; 14 days, 37.5 mg/kg/day (High dose)",greatest extent of cholesterol lowering
same,"difference in plasma cholesterol between control and treated groups, in words",[5],significant decrease in plasma cholesterol
same,"difference in plasma cholesterol between control and treated groups, in words",[5]; listed as (−) enantiomer,most active of the species tested
same,"plasma glucose after oral glucose challenge, in words",Zucker fatty rats [6]; single oral dose 5.5 hours before challenge,most effective in lowering the glucose; also recorded: greatest degree of glucose-lowering of all the treated animals
same,"incremental glucose area under the curve (AUC) vs control, in words",Zucker fatty rats [6],significant reductions in the glucose area; also recorded: Significant changes (p<0.05)
same,"overnight fasting plasma insulin after 5 days, in words","diabetic ob/ob mice [7]; 125 mg/kg/day oral, listed as (−) enantiomer, 125 mg/kg/day",Significantly lower plasma insulins
same,time points with significant plasma glucose reduction vs control,"diabetic ob/ob mice [7]; 250 mg/kg/day oral, 250 mg/kg/day",also active at 3 hours
same,"overnight fasting plasma insulin after 5 days, in words",diabetic ob/ob mice [7]; [11],Significantly lower plasma insulins
same,time points with reduced plasma insulin vs control,diabetic ob/ob mice [7]; [11],greatest extent of reduced plasma insulin was noted at 27 and 30 hours
same,"plasma glucose compared to vehicle-treated animals, in words",ZDF rats,significantly reduced plasma glucose concentrations
same,"plasma uric acid levels vs vehicle, in words",[8],significantly reduced plasma uric acid levels
same,"increase of plasma glucose levels with age, in words",C57BL/6J db/db mice,prevented or significantly delayed
same,"plasma insulin concentration with age, in words",C57BL/6J db/db mice,maintained the plasma insulin concentration
same,"plasma triglyceride levels with age, in words",C57BL/6J db/db mice,alleviated hyperlipidemia
same,"plasma triglyceride levels with age, in words",C57BL/6J db/db mice; listed as (−) Halofenate,alleviated the increase of plasma triglyceride concentration
same,glucose lowering compared with the (+) enantiomer at 3 hour and 24 hour time points,diabetic ob/ob mice [9],more effective and significantly different (p<0.05) from the (+) enantiomer
same,"onset and duration of glucose-lowering action, in words",diabetic ob/ob mice [9],more rapid onset and sustained longer
same,"onset and duration of glucose-lowering action, in words",diabetic ob/ob mice [9]; listed as (−) enantiomer,most rapid onset of action and the longest duration of action
